Assay results from the supplement of paper PMC11451515.

Tested on: P12-Ichikawa
Experiment: cell viability relative to DMSO control; higher = less cytotoxic
Settings: 48 h
How it was run: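 Before seeding, each leukemia line was adapted for at least four passages in each medium. NOMO1 or SEM cells (500 cells/well) and P12-Ichikawa cells (1000 cells/well) went into 1536-well plates at 5 μl, then received library compounds in DMSO by pin dosing across 11 threefold concentrations, 47 μM to 0.79 nM. Readout was CellTiter-Glo One luminescence after 48 h at 37°C, and viability is given as a per-plate percentage of DMSO wells, with cell-free wells as background.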

[1] = HPLM + 10% dialyzed FBS, 0.000781 µM
[2] = HPLM + 10% dialyzed FBS, 0.00234 µM
[3] = HPLM + 10% dialyzed FBS, 0.00702 µM
[4] = HPLM + 10% dialyzed FBS, 0.0211 µM
[5] = HPLM + 10% dialyzed FBS, 0.0632 µM
[6] = HPLM + 10% dialyzed FBS, 0.19 µM
[7] = HPLM + 10% dialyzed FBS, 0.569 µM
[8] = HPLM + 10% dialyzed FBS, 1.71 µM
[9] = HPLM + 10% dialyzed FBS, 5.12 µM
[10] = HPLM + 10% dialyzed FBS, 15.4 µM
[11] = HPLM + 10% dialyzed FBS, 46.1 µM
[12] = RPMI 5 mM glucose + 10% FBS, 0.000781 µM
[13] = RPMI 5 mM glucose + 10% FBS, 0.00234 µM
[14] = RPMI 5 mM glucose + 10% FBS, 0.00702 µM
[15] = RPMI 5 mM glucose + 10% FBS, 0.0211 µM
[16] = RPMI 5 mM glucose + 10% FBS, 0.0632 µM
[17] = RPMI 5 mM glucose + 10% FBS, 0.19 µM
[18] = RPMI 5 mM glucose + 10% FBS, 0.569 µM
[19] = RPMI 5 mM glucose + 10% FBS, 1.71 µM
[20] = RPMI 5 mM glucose + 10% FBS, 5.12 µM
[21] = RPMI 5 mM glucose + 10% FBS, 15.4 µM
[22] = RPMI 5 mM glucose + 10% FBS, 46.1 µM
[23] = RPMI 5 mM glucose + 10% dialyzed FBS, 0.000781 µM
[24] = RPMI 5 mM glucose + 10% dialyzed FBS, 0.00234 µM
[25] = RPMI 5 mM glucose + 10% dialyzed FBS, 0.00702 µM
[26] = RPMI 5 mM glucose + 10% dialyzed FBS, 0.0211 µM
[27] = RPMI 5 mM glucose + 10% dialyzed FBS, 0.0632 µM
[28] = RPMI 5 mM glucose + 10% dialyzed FBS, 0.19 µM
[29] = RPMI 5 mM glucose + 10% dialyzed FBS, 0.569 µM
[30] = RPMI 5 mM glucose + 10% dialyzed FBS, 1.71 µM
[31] = RPMI 5 mM glucose + 10% dialyzed FBS, 5.12 µM
[32] = RPMI 5 mM glucose + 10% dialyzed FBS, 15.4 µM
[33] = RPMI 5 mM glucose + 10% dialyzed FBS, 46.1 µM

SMILES | cell viability [1] | cell viability [2] | cell viability [3] | cell viability [4] | cell viability [5] | cell viability [6] | cell viability [7] | cell viability [8] | cell viability [9] | cell viability [10] | cell viability [11] | cell viability [12] | cell viability [13] | cell viability [14] | cell viability [15] | cell viability [16] | cell viability [17] | cell viability [18] | cell viability [19] | cell viability [20] | cell viability [21] | cell viability [22] | cell viability [23] | cell viability [24] | cell viability [25] | cell viability [26] | cell viability [27] | cell viability [28] | cell viability [29] | cell viability [30] | cell viability [31] | cell viability [32] | cell viability [33]
COc1c(Cl)cc2c([nH]c3cnccc32)c1NC(=O)c1cccnc1C | 103% | 99.3% | 102% | 106% | 107% | 109% | 99% | 99.1% | 94.9% | 94.7% | 93.1% | 107% | 105% | 107% | 108% | 112% | 108% | 96.1% | 105% | 110% | 105% | 96.9% | 102% | 110% | 104% | 96.9% | 106% | 106% | 97.7% | 94.1% | 95.4% | 95.6% | 82.8%
Cc1c(N)nc([C@H](CC(N)=O)NC[C@@H](N)C(N)=O)nc1C(=O)N[C@H](C(=O)N[C@@H](C)[C@H](O)[C@@H](C)C(=O)N[C@@H](C(=O)NCCc1nc(-c2nc(C(=O)NCCC[S+](C)C)cs2)cs1)[C@@H](C)O)C(O[C@H]1O[C@H](CO)[C@H](O)[C@@H](O)[C@H]1O[C@H]1O[C@H](CO)[C@@H](O)[C@H](OC(N)=O)[C@@H]1O)c1c[nH]cn1 (some centres undefined) | 112% | 114% | 108% | 108% | 111% | 120% | 110% | 96.6% | 78% | 28.3% | 40.9% | 103% | 102% | 112% | 114% | 104% | 109% | 105% | 67.3% | 51.5% | 21.4% | 37% | 102% | 103% | 108% | 103% | 105% | 109% | 107% | 91.6% | 82.1% | 37.2% | 44.6%
COc1ccccc1[C@H](c1cccc2ccccc12)[C@@](C)(C#N)C(=O)N1CCC(c2cccc(C(F)(F)F)c2)CC1 | 99.7% | 109% | 104% | 115% | 104% | 113% | 107% | 107% | 92.7% | 84.5% | 68.8% | 108% | 115% | 104% | 107% | 119% | 99.8% | 107% | 92.4% | 80.3% | 72.7% | 60.7% | 108% | 108% | 117% | 112% | 122% | 111% | 108% | 112% | 88.7% | 71.2% | 47.9%
Cc1cc(Nc2ncc3c(n2)N(C)C(=O)N(c2cc(NC(=O)c4cccc(C(F)(F)F)c4)ccc2C)C3)n(C)n1 | 116% | 114% | 117% | 120% | 119% | 120% | 114% | 90.4% | 79.3% | 55.8% | 7.23% | 106% | 120% | 124% | 123% | 133% | 115% | 105% | 73.5% | 66.5% | 52.5% | 5.53% | 111% | 119% | 116% | 132% | 124% | 122% | 111% | 76.1% | 72.1% | 50.9% | 5.1%
CNc1nc(-c2ccc3c(N)n[nH]c3c2)cc(N2C[C@@H](C(=O)NC3CCCCC3)CC[C@H]2C)n1 | 97.8% | 85.9% | 90.8% | 95.6% | 98.6% | 90.8% | 83.5% | 76.9% | 75.3% | 72.3% | 13.4% | 76.7% | 91.4% | 82.5% | 86.5% | 78.6% | 65.6% | 64% | 57.7% | 54.9% | 51% | 12.8% | 83.5% | 86.6% | 79.9% | 86.5% | 88.4% | 69.9% | 65.5% | 63.5% | 59.8% | 52.1% | 27.8%
C=CC(=O)Nc1cccc(Sc2nc(Nc3ccc(N4CCN(C)CC4)cc3)ncc2Cl)c1 | 105% | 108% | 109% | 112% | 107% | 121% | 122% | 118% | 115% | 118% | 22.2% | 95.7% | 107% | 113% | 121% | 116% | 122% | 120% | 115% | 124% | 117% | 19.2% | 104% | 115% | 110% | 114% | 118% | 120% | 123% | 124% | 123% | 126% | 26.3%
C=CC(=O)Nc1cc2c(Nc3ccc(F)c(Cl)c3)ncnc2cc1C#CC(C)(C)N1CCN(C)CC1 | 103% | 108% | 99.5% | 97.4% | 102% | 106% | 107% | 102% | 58.9% | 5.08% | 23.4% | 95.6% | 105% | 101% | 102% | 112% | 106% | 107% | 106% | 65.7% | 5.56% | 15.3% | 97.4% | 101% | 96.1% | 101% | 101% | 98.2% | 96.1% | 95.7% | 51% | 5.48% | 12.7%
Cc1ccc(C(=O)Nc2cccc(C(F)(F)F)c2)cc1Nc1nc(-c2cccnc2)nc2c1cnn2C | 88.1% | 90.8% | 93.7% | 89.5% | 91.2% | 90% | 86.6% | 85.9% | 83.3% | 86.7% | 84% | 73.1% | 83.8% | 88.9% | 85.6% | 83.9% | 82.8% | 87.5% | 88.2% | 79.5% | 78.8% | 74.5% | 90.8% | 85.2% | 87.6% | 86.7% | 95.5% | 84.7% | 90.9% | 96.7% | 75.8% | 76.8% | 86.5%
CC1(C)CC\C2=C(/O1)C3=C(C=CC=C3)C(=O)C2=O | 112% | 118% | 114% | 116% | 106% | 111% | 110% | 102% | 104% | 99.4% | 2.4% | 113% | 106% | 94.9% | 102% | 112% | 109% | 105% | 98.3% | 105% | 90.5% | 0.954% | 107% | 119% | 100% | 101% | 108% | 96.6% | 109% | 89.2% | 102% | 94.9% | 1.41%
CCC(CCCC)COC(=O)C(\C#N)=C(\c1ccccc1)c2ccccc2 (centres undefined) | 95.6% | 100% | 102% | 99.3% | 106% | 108% | 112% | 107% | 113% | 107% | 99.3% | 89.8% | 95.7% | 95.2% | 96.3% | 110% | 104% | 106% | 99.2% | 95.2% | 102% | 94.5% | 87.1% | 84.2% | 97.6% | 98.5% | 98.8% | 97.2% | 101% | 99.5% | 97.3% | 99.1% | 95.9%
CO[C@@H](C(=O)N1Cc2[nH]nc(NC(=O)c3ccc(N4CCN(C)CC4)cc3)c2C1)c1ccccc1 | 89.1% | 93.6% | 93% | 95.9% | 80% | 35.4% | 15% | 20.3% | 23.2% | 25% | 50.8% | 90% | 87.3% | 84.9% | 89% | 75.9% | 30.3% | 19.9% | 28.9% | 28.3% | 26.1% | 42.3% | 87.1% | 95.8% | 95.9% | 95.5% | 82.8% | 34.5% | 28.4% | 37.9% | 39.4% | 42.8% | 54.8%
CO[C@H]1CCC(O[C@H]2C[C@H]([C@]3(C)CC[C@]4(C[C@H](O)[C@@H](C)[C@@H]([C@@H](C)/C=C(\C)C(=O)[C@H](C)C[C@H](C)C(=O)[O-])O4)O3)O[C@]3(O[C@@H]([C@H]4O[C@@](O)(CO)[C@H](C)C[C@@H]4C)C[C@@H]3C)[C@@H]2C)O[C@@H]1C (some centres undefined) | 120% | 124% | 119% | 118% | 111% | 106% | 87.3% | 80.2% | 48.8% | 35.7% | 21.5% | 124% | 113% | 106% | 113% | 111% | 103% | 99.7% | 73.1% | 44.2% | 28.9% | 22.7% | 118% | 120% | 109% | 119% | 120% | 119% | 108% | 88.8% | 39.7% | 25.3% | 27.1%
C/C1=C2/[N]3[Co+]456([OH])<-[N]7=C1[C@@H](CCC(N)=O)C(C)(C)/C7=C/C1=[N]->4C(=C(/C)C4=[N]->5[C@@](C)([C@H]3[C@H](CC(N)=O)[C@@]2(C)CCC(=O)NC[C@@H](C)OP(=O)([O-])O[C@H]2[C@@H](O)[C@@H](n3c[n]->6c5cc(C)c(C)cc53)O[C@@H]2CO)[C@@](C)(CC(N)=O)[C@@H]4CCC(N)=O)/[C@@](C)(CC(N)=O)[C@@H]1CCC(N)=O | 103% | 97.2% | 95.9% | 99.2% | 99.9% | 97.8% | 92.8% | 93.2% | 76.8% | 77.7% | 71.3% | 97.5% | 88.7% | 97.9% | 98.1% | 95.7% | 88.3% | 98.8% | 93.4% | 85.8% | 85.4% | 69.8% | 82.3% | 85.2% | 86.5% | 77.3% | 83% | 79.9% | 75.7% | 76.7% | 73.9% | 76.9% | 61%
